# Measured values reported in US20250170212A1, “COMPOSITIONS AND METHODS OF TREATING AMYOTROPHIC LATERAL SCLEROSIS (ALS) AND RELATED DISORDERS” (BIOINCEPT, LLC, priority 2022, published 2025).
# “Also recorded” adds a separate entry of the source.
# Assays:
# [1] = system: immature brain injury; conditions: murine model of immature brain injury; cited from earlier work
# [2] = system: transgenic SOD1^G93A mice; test: Hanging wire test (neuromuscular strength and coordination); assay type: in vivo, mouse; conditions: weekly from day 0, drug groups with mGRPs
# Experimental: To assess the motor capacity of our treatment groups, motor skills assays were performed. Starting at day −7 SOD1^G93A mice (n=30) were trained in hanging wire. Animals were trained 3 times a week in 2 days interval. Weekly measurements were performed starting at day 0 until the end of the experiment. Hanging wire test was used to test neuromuscular strength and coordination. Briefly, mice were hung on a wire and had to catch the wire both by upper and lower limbs as well as tangle it with tail in order to move the whole distance towards a stick (repeated three times for each mouse and obtaining an average). Maximum points (1.5 point) were given when mice performed the task. […] A poor score (<0.66 points) was given when a mouse was unable to move the whole distance and the amount of time for which mice were able to hang on the wire (1 sec=0.016 points) was counted. […]
# All quantifications were performed including the manual cell counts in a blinded manner. The NeuN and Ibal were counted as positive cells in the ROI (see above) as previously reported. The number of cells was determined by unbiased counting of positive cells. […] Differences between groups were analyzed using a repeated measure ANOVA model with a fixed effect for the group, of the time and a random intercept for the mouse. […] The statistical significance at p<0.05 was then determined.
# [3] = system: NeuN positive cells (mature neurons); test: Immunohistochemistry of mature neurons in brainstem motor nuclei; assay type: in vivo, mouse; conditions: facial and hypoglossal motor nuclei; compared to Injury
# Experimental: At the end of experiment, mice were subjected to full body perfusion with 20% sucrose and 10% buffered formalin suitable for histology assays (Sigma Aldrich, St.Louis, MO, USA). Mice were decapitated and incubated in formalin for 24 h. Following the tissues (brain and spinal cord) were isolated, paraffin fixed for further analyses. After brain removal, the tissue was fixed in a formaldehyde solution (4%) for 2-4 hours at RT followed by 4° C. for a total time of 24-48 hours. Fixed tissues were embedded in paraffin and finally sectioned into 7 μm slices. […]
# Assessment of neuronal and microglial positive cells were performed in the region of interest (ROI). […] The images were analyzed and reconstructed using Image J (US National Institutes of Health).
# All quantifications were performed including the manual cell counts in a blinded manner. The NeuN and Ibal were counted as positive cells in the ROI (see above) as previously reported. The number of cells was determined by unbiased counting of positive cells. […] Differences between groups were analyzed using a repeated measure ANOVA model with a fixed effect for the group, of the time and a random intercept for the mouse. In a second, more explorative, approach for each group the time when the physical activity was first measured below a certain threshold was determined. […]
sequence,measurement,setting,value
MVRIKPGSANKPSDD [sPIF],neuronal loss and microglial activation,[1],mitigate neuronal loss and microglial activation
same,motor performance in hanging wire test (early motor impairment),[2],significant delay of early motor impairment; also recorded: significant improvement of motor outcome
same,number of mature neurons (NeuN positive cells),[3],significant protection of neuronal cells
